The test system of assay [1] is LTB4 production in rat polymorphonuclear cells. In words: Ex vivo inhibition of LTB4 production (LTB4 biosynthesis). The class given is cell-based. Conditions: for IC50: Rattus norvegicus, read-out: Inh. of LTB4 biosynth., IC50; for Inh. of LTB4 biosynth., %: at 30 μg (%/μg). On the procedure:
Ex vivo Inhibition of LTB4 Production The production of LTB4 was determined in rat polymorphonuclear cells from pleural exudate elicited by heat-activated rat serum (Palmer R. M. J., Salmon J. A.: Immunology 50, 65 (1983)). The cells were stimulated with the Ca ionophore A 23187 (Sigma) and incubated with various concentrations of the drugs tested. The sample containing only buffer was used for the determination of unaffected biosynthesis; the complete inhibition was measured in a sample with 100 μg of NDGA in 1 ml. LTB4 was determined in supernatant using a commercial RIA kit (Amersham).

Assay [2] concerns the target LTB4 receptor (Cavia porcellus, UniProt H0VYV8). In words: LTB4 receptor binding study. Conditions: 3H-LTB4, guinea-pig spleen membranes; for IC50: read-out: Inh. of LTB4 rec. binding, IC50; for inhibition at 20 µM: read-out: Inh. of LTB4 rec. binding, %. The protocol:
LTB4 Receptor Binding Study
A slightly modified method of Cheng and coworkers (Cheng J. B. et al.: J. Pharm. Expl. Ther. 236, 126 (1986)) was used. The membrane fraction was prepared from male guinea-pig spleen; 2 mg of membranes were incubated with 0.3 nM ^3 H-LTB4 at 25° C. for 30 min in 100 μl of the incubated mixture. The nonspecific binding was determined in the presence of 0.1 μM LTB4. The membranes were filtered though Whatman GF/C paper and washed triply with buffer. The radioactivity was measured by liquid scintillation spectrometry, and the specific binding of ^3 H-LTB4 to the receptor was determined.

Assay [3] has as its target T1, LTD4 receptor (Cavia porcellus, UniProt Q2NNR5).
T1 construct: The membrane fraction was prepared from male guinea-pig lungs; from tissue; host or cells: male guinea-pig lung membranes
T1 sequence (Q2NNR5 1-340): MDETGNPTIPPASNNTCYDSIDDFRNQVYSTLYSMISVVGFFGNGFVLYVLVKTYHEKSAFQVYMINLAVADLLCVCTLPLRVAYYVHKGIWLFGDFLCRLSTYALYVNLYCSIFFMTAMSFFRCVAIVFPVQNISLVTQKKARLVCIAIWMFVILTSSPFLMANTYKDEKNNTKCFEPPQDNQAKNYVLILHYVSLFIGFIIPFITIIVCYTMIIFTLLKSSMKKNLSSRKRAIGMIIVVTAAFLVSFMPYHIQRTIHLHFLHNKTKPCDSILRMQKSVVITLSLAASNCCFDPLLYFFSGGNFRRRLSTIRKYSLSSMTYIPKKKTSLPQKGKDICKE
The assay is described as follows: LTD4 receptor binding study. The settings on record: 3H-LTD4, guinea-pig lung membranes; for IC50: read-out: Inh. of LTD4 rec. binding, IC50; for inhibition at 100 µM: read-out: Inh. of LTD4 rec. binding, %. The protocol: LTD4 Receptor Binding Study
This study was performed according to the method of Burns and coworkers (Burns R. F. et al.: Life Sci. 33, 645 (1983)). The membrane fraction was prepared from male guinea-pig lungs, and 4 mg of this fraction were incubated with 0.4 nM ^3 H-LTD4 for 60 min at 25° C. in 100 μl of the incubated mixture. The nonspecific binding was determined in the presence of 0.1 μM LTD4. The filtration of the membranes, washing, and radioactivity measurement were as above.

In assay [4] the test system is peroxidation of lipids from the hepatic cells membranes. In words: Antioxidant effect in vitro. It counts as biochemical. Conditions: at 100 μg. The text has this: Antioxidant Effect in vitro
The end-product, malonic dialdehyde, was transformed to coloured complex with thiobarbituric acid and determined spectrophotometrically. The antioxidant effect was expressed in % of peroxidation inhibition in the presence of the compound tested in comparison to a control sample.

In assay [5] the test system is Wistar-Han rats. The assay is described as follows: Inhibition of carrageenan edema. It counts as in vivo. Conditions: Rattus norvegicus, dose 100 mg/kg; read-out: CE: inhibition of carrageenan-induced edema, % of inh. On the technique in general: Carrageenan injected into the paw causes an acute inflammation.
The subject of assay [6] is rats. In words: Inhibition of carrageenan-induced pleuritis in rats. It counts as in vivo. The settings on record: Rattus norvegicus, po, 4 h, dose 100 mg/kg, oral, values with mark n: p > 0.05. On the procedure: Inhibition of Carrageenan-induced Pleuritis in Rats
(Hidaka T. J.: Pharm. Pharmacol. 38, 242 (1986) 1 ml of 0.5% carrageenan solution in saline was administered intrapleurally to experimental animals under mild ether anesthesia. Test drugs were administered in single oral dose 1 h before carrageenan injection, 4 h following the carrageenan application the rats were killed and exudate was withdrawn from opened pleural cavity. The volume of exudate, its cellularity and total cell number were determined.

In assay [7] the test system is male mice. In words: Inhibition of arachidonic acid-induced ear inflammation in mice. It counts as in vivo. Conditions: Mus musculus, po, 1 h. On the procedure:
Inhibition of Arachidonic Acid-induced Ear Inflammation in Mice (Opas E. E. et al.: J. Invest. Dermatol. 84, 253 (1985) Ear inflammation was induced in male mice by 20 μl of arachidonic acid dissolved in acetone (concentration 100 mg/ml). The mice were sacrificed 1 h after application of arachidonic acid and the ears were cut off by standard means. The other, vehicle-treated ear of the same animal served as a control. The degree of ear hyperemia and the weight of ear lobes were evaluated. Test compounds were administered orally 1 h before the induction of inflammation.

Where [8] appears, read: read-out: Experimental pleuritis, A: volume of exudate in pleural cavity, % of inh.
[9] abbreviates: read-out: Experimental pleuritis, B: number of cells, % of inh.
[10] abbreviates: read-out: Experimental pleuritis, C: cellularity in a volume unit, % of inh.
Setting [11] is: values with mark n: p > 0.05, read-out: Ear edema, D: edema of ear lobe, % of inh.
[12] abbreviates: values with mark n: p > 0.05, read-out: Ear edema, E: hyperemia of ear lobe, % of inh.

≈ marks a conversion by molar mass, not a printed value. Read-outs that look alike come from different tables or passages of the source.

Chain of LTB4 receptor (H0VYV8 1-348): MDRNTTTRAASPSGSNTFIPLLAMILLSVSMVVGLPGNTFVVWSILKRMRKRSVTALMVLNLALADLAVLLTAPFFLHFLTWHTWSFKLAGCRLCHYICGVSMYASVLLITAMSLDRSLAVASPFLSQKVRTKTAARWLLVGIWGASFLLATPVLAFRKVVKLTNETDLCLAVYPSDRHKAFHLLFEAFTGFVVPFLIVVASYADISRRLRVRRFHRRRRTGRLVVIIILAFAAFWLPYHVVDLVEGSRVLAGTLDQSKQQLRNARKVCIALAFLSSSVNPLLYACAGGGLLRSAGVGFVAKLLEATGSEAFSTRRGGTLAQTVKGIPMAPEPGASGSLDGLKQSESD

For orientation: IC50 means the concentration that gives 50% inhibition. Turning to `CCCc1c(OCCCOc2ccc(Sc3ccc(C(=O)O)cc3)cc2)ccc(C(C)=O)c1O` [Compound 3, 4-(4-(3-(4-Acetyl4-3-hydroxy-2-propylphenoxy)propoxy)phenylsulfanyl)benzoicAcid], the IC50 is 0.48 mg/L (≈ 0.999 µM) in assay [1], 20 µM in assay [2] and 19 µM in assay [3]. For the same compound, the “Inh. of LTB4 biosynth., %” value in assay [1] was 100%. For the same compound, the inhibition at 20 µM in assay [2] was 50%. Also, in assay [3], the inhibition at 100 µM came to 97%. Moreover, in assay [4], the “Antiox. effect, % of peroxidation inhibition” value stood at 33%. Moreover, the inhibition in vivo at 100 mg/kg is 32% in assay [5], 2% in assay [6] (setting [8]), 27% in assay [6] (setting [9]) and 28% in assay [6] (setting [10]). The results for the inhibition in vivo at 200 mg/kg in assay [7] (setting [11]) and in assay [7] (setting [12]) were 8% and 5%, respectively.
`CCCc1c(OCCOc2cccc(Sc3ccc(C(=O)O)cc3)c2)ccc(C(C)=O)c1O` [Compound 2, 4-(3-(2-(4-Acetyl-3-hydroxy-2-propylphenoxy)ethyloxy)phenylsulfanyl)benzoicAcid]: the IC50 in assay [1] stood at 0.8 mg/L (≈ 1.71 µM); in assay [2], 5.2 µM; in assay [3] it was 26.1 µM. Moreover, the “Inh. of LTB4 biosynth., %” value in assay [1] turned out to be 100%. The inhibition at 20 µM in assay [2] is 98%. In assay [3], the inhibition at 100 µM was found to be 88%. In addition, in assay [4], the “Antiox. effect, % of peroxidation inhibition” value turned out to be 41%. Moreover, the inhibition in vivo at 100 mg/kg in assay [5] was 30%; in assay [6] (setting [8]) it was 2%; in assay [6] (setting [9]), 43%; in assay [6] (setting [10]), 46%. Also, the inhibition in vivo at 200 mg/kg in assay [7] (setting [11]) was 18%; in assay [7] (setting [12]), 2%.
Turning to `CCCc1c(OCCCOc2ccc(Sc3ccccc3CC(=O)O)cc2)ccc(C(C)=O)c1O` [Compound 25, 2-(4-(3-(4-Acetyl-3-hydroxy-2-propylphenoxy)propoxy)phenylsulfanyl)phenylacetic Acid], the “Inh. of LTB4 biosynth., %” value in assay [1] amounted to 100%. Further, the inhibition at 20 µM in assay [2] is 19%. In assay [3], the IC50 was 37.5 µM. Further, in assay [3], the inhibition at 100 µM amounted to 71%. Besides, the “Antiox. effect, % of peroxidation inhibition” value in assay [4] stood at 23%. The inhibition in vivo at 100 mg/kg in assay [5] was 7%; in assay [6] (setting [8]), 4%; in assay [6] (setting [9]) it was 38%; in assay [6] (setting [10]), 44%. Also, the inhibition in vivo at 200 mg/kg in assay [7] (setting [11]) was 20%; in assay [7] (setting [12]), 16%.
With `CCCc1c(OCCOc2ccc(Sc3ccc(C(=O)O)cc3)cc2)ccc(C(C)=O)c1O` [Compound 1, 4-(4-(2-(4-Acetyl-3-hydroxy-2-propylphenoxy)ethyloxy)phenylsulfanyl)benzoicAcid], the results for the 50% inhibitory concentration (IC50) in assay [1], in assay [2] and in assay [3] were 3.5 mg/L (≈ 7.5 µM), 17 µM and 10.8 µM, respectively. The “Inh. of LTB4 biosynth., %” value in assay [1] came to 100%. In assay [2], the inhibition at 20 µM came to 61%. For the same compound, the inhibition at 100 µM in assay [3] was 98%. For the same compound, the “Antiox. effect, % of peroxidation inhibition” value in assay [4] was 54%. The inhibition in vivo at 100 mg/kg came to 31% in assay [5], 8% in assay [6] (setting [8]), 17% in assay [6] (setting [9]) and 9% in assay [6] (setting [10]). Moreover, the figures for the inhibition in vivo at 200 mg/kg in assay [7] (setting [11]) and in assay [7] (setting [12]) were 13% and 8%, respectively.
On to `CCCc1c(OCCCCOc2ccc(Sc3ccccc3CC(=O)O)cc2)ccc(C(C)=O)c1O` [Compound 26, 2-(4-(4-(4-Acetyl-3-hydroxy-2-propylphenoxy)butoxy)phenylsulfanyl)phenylacetic Acid], for which the “Inh. of LTB4 biosynth., %” value in assay [1] was determined as 97%. In addition, the half-inhibitory concentration (IC50) in assay [2] was determined as 18 µM; in assay [3], 34.7 µM. In assay [2], the inhibition at 20 µM came to 29%. The inhibition at 100 µM in assay [3] was 63%. In addition, in assay [4], the “Antiox. effect, % of peroxidation inhibition” value worked out at 0%. Further, the inhibition in vivo at 100 mg/kg in assay [5] stood at 34%; in assay [6] (setting [8]) it was 20%; in assay [6] (setting [9]), 8%; in assay [6] (setting [10]), 23%. Further, the inhibition in vivo at 200 mg/kg in assay [7] (setting [11]) was 17%; in assay [7] (setting [12]) it was 0%.
For `O=C(O)c1ccccc1Sc1ccc(OCc2ccc3cc(Cl)ccc3n2)cc1` [Compound 21], the figures for the IC50 in assay [1], in assay [2] and in assay [3] were 0.08 mg/L (≈ 0.19 µM), 30.1 µM and 1.7 µM, respectively. In assay [1], the “Inh. of LTB4 biosynth., %” value is recorded as 100%. The inhibition at 20 µM in assay [2] came to 39%. Besides, the inhibition at 100 µM in assay [3] was 86%. Moreover, in assay [4], the “Antiox. effect, % of peroxidation inhibition” value is 0%. The inhibition in vivo at 100 mg/kg in assay [5] amounted to 18%; in assay [6] (setting [8]) it was 15%; in assay [6] (setting [9]), 12%; in assay [6] (setting [10]) it was 4%. The inhibition in vivo at 200 mg/kg stood at 7% in assay [7] (setting [11]) and 3% in assay [7] (setting [12]).
With `CCCc1c(OCCCCOc2ccc(Sc3ccc([N+](=O)[O-])cc3C(=O)O)cc2)ccc(C(C)=O)c1O` [Compound 10, 2-(4-(4-(4-Acetyl-3-hydroxy-2-propylphenoxy)butoxy)phenylsulfanyl)-5-nitrobenzoic Acid], the “Inh. of LTB4 biosynth., %” value in assay [1] was found to be 100%. In addition, the IC50 in assay [2] is 13 µM; in assay [3], 15.2 µM. The inhibition at 20 µM in assay [2] was 66%. The inhibition at 100 µM in assay [3] came to 89%. The “Antiox. effect, % of peroxidation inhibition” value in assay [4] is listed as 14%. The inhibition in vivo at 100 mg/kg in assay [5] was found to be 22%; in assay [6] (setting [8]) it was 14%; in assay [6] (setting [9]), 31%; in assay [6] (setting [10]), 19%. For the same compound, the inhibition in vivo at 200 mg/kg amounted to 20% in assay [7] (setting [11]) and 2% in assay [7] (setting [12]).

For the origin of these results see US6303612A, “Derivatives of hydroxyphenylsulfanylbenzoic and hydroxphenylsulfanylarylacetic acids” (Leciva, A.S., priority 1998, dated 2001).
